Values quoted from earlier work as cited in patent US4430326A (University Patents, Inc., priority 1981, dated 1984).

What was measured:
[1] = test system: glycogenolytic stimulation; conditions: Cote, et al.
adenylate cyclase system = conditions: literature reports

N^α -trinitrophenyl glucagon
reported action toward glycogenolytic stimulation [1]: partial agonist

N^α,N^ε -di(trinitrophenyl)-glucagon
reported action on adenylate cyclase activity (agonist / antagonist) (adenylate cyclase system): agonists

[12-homoargine]glucagon
reported action on adenylate cyclase activity (agonist / antagonist) (adenylate cyclase system): full agonist
